{
  "source": "patent US20210322346A1",
  "about": "“CHEMICALLY MODIFIED CURCUMINS FOR USE IN THE PRODUCTION OF LIPOXINS” (The Research Foundation for The State University of New York, priority 2015, published 2021)",
  "key": {"Lipoxin A4": {"system": "Lipoxin A4", "assay": "Lipoxin A4 ELISA in macrophage conditioned media, CFE and serum of diabetic rats", "type": "in vivo, rat", "settings": "STZ-diabetic rats, 30 mg/kg oral once per day for 3 weeks", "experimental": "(§1) Adult rats were made diabetic by I.V. injection of streptozotocin; non-diabetic rats served as controls (n=6 rats per group; all groups). Half of the diabetics (blood glucose >500 mg/dl) were orally administered CMC2.24 (30 mg/kg) once per day for 3 weeks; untreated diabetics (D) and N rats received vehicle alone. PEs were collected at time=0 (ie, before thioglycollate injection into peritoneal cavity). Resident macrophages were isolated from PEs, then incubated in cell culture for 13 hours (370 C; 95% air/5% CO2 atmosphere). Lipoxin A4 levels were measured by ELISA (a) in cell culture serum-free conditioned media; (b) in the cell-free exudates (CFEs); and (c) in serum."}, "Lipoxin B4": {"system": "Lipoxin B4", "assay": "Lipoxin B4 ELISA in macrophage conditioned media, CFE and serum of diabetic rats", "type": "in vivo, rat", "settings": "STZ-diabetic rats, 30 mg/kg oral once per day for 3 weeks", "experimental": "as §1, with “18” for “13”, “B4” for “A4”"}, "[1]": {"system": "IL-1β relative to lipoxin A4", "assay": "Experiment A: IL-1β and lipoxin A4 secreted by macrophages from treated diabetic rats", "type": "in vivo, rat", "settings": "30 mg/kg oral once per day for 21 days, compared to untreated diabetics", "experimental": "In an in vivo experiment, three groups of adult male rats were established including non-diabetic controls (NDC group; n=6 rats/group); rats that were made diabetic and severely hyperglycemic by STZ injection (D+vehicle group; n=6 rats/group), and a 3rd group of rats (n=6 rats/group) in which the diabetics were orally administered CMC2.24 (30 mg/kg body weight) once per day for 21 days. At the end of the protocol, the rats were sacrificed and the peritoneal cells were collected by washing with cold 15 ml phosphate buffered saline/EDTA, The macrophages were harvested from the peritoneal wash from each rat, after 2 hours of adherence to culture plates (sterile conditions), the cells were counted and then incubated for 18 h at 37° C. in an atmosphere of 95% air/5% CO2. The conditioned media was then collected and analyzed for the resolvin, lipoxin A4, and for two inflammatory cytokines, IL-1β and IL-6. The data is expressed as a ratio of […] (pg/ml) relative to resolvin (ng/ml) secreted by the macrophages from the three experimental groups (FIG. 45A)."}, "[2]": {"system": "IL-1β relative to lipoxin A4", "assay": "Experiment B: IL-1β/lipoxin A4 ratio in LPS-exposed macrophages in culture", "type": "cell-based, rat", "settings": "LPS (100 ng/ml)-exposed macrophages, CMC2.24 5 μM", "experimental": "(§2) In the second experiment, macrophages (chronic inflammatory cells), were collected and counted from the peritoneal washes of the six non-diabetic control rats. These cells were then pooled and incubated under different in vitro conditions including: group 1, control Møs; group 2, Møs incubated with lipopolysaccharide (LPS)/endotoxin at 100 ng/ml, final concentration, added to the culture media; group 3, Møs exposed to LPS but treated with CMC2.24 at a final concentration of 2 μM; and group 4, like group 3 except that CMC2.24 was increased to 5 μM (note that in this cell culture experiment, sufficient IL-6 was secreted by the LPS-exposed Møs unlike Experiment A, above)."}, "[3]": {"system": "IL-6 relative to lipoxin A4", "assay": "Experiment B: IL-6/lipoxin A4 ratio in LPS-exposed macrophages in culture", "type": "cell-based, rat", "settings": "LPS (100 ng/ml)-exposed macrophages, CMC2.24 5 μM", "experimental": "as §2"}, "[4]": {"system": "elastase/LPS-treated COPD mice", "assay": "Morphometry: mean linear intercept (chord length) in COPD mice", "type": "in vivo, mouse", "settings": "oral gavage for seven days, control 33, COPD 54", "experimental": "Elastase and LPS exposure: A total of 180 male and 180 female WT mice (8-12 weeks old) were used for all experiments. Experiments were performed in triplicate for each group of age- and gender-matched mice. Animals were exposed by the intranasal route to 10 μl saline containing 1.2 units of porcine pancreatic elastase (Elastin Products, Owensville, Mo.) on Tuesday and 10 μl saline containing 7 μg (−70 endotoxin units) of LPS from Escherichia coli O26:B6 (Sigma-Aldrich, St. Louis, Mo.) on Friday of each week for four consecutive weeks.\n3 mg of CMC2.24 powder were dissolved in 1 mL suspension of 2% Carboxymethyl cellulose vehicle for the daily oral administration of CMC2.24 (40 mg/kg). Vehicle alone was administered to the control group. Both CMC2.24 and vehicle control were administered once daily over the 7-day protocol by gavage (Zhang, Y. et al. 2010; Elburki, M. S. et al. 2014).\nMorphometry—Air Space Enlargement: In an effort to quantitate alveolar air space enlargement, the Mean Linear Intercept (MLI) was implemented. […] Afterwards, seven equally spaced lines were then drawn within the guard zone, and directly measured by manual use of a ruler. Starting from the left, the line was scanned for any intersections with the alveolar walls and measured until the following intersection with the alveolar surface on the right. […]"}, "[5]": {"system": "Human lung epithelial cell line (A549)", "assay": "Cell viability by CCK-8 assay in A549 cells", "type": "cell-based", "settings": "1 to 80 μM, 24 h", "experimental": "(§3) Human lung epithelial cell line (A549) and primary alveolar macrophage cell culture: Human lung epithelial cell line (A549, ATCC #CCL-185) was purchased from ATCC (Manassas, Va.); and primary alveolar macrophages were prepared from healthy adult animals (swine). A549 cells and primary alveolar macrophages were cultured in RPMI Media 1640 medium supplemented with 10% (v/v) FBS, 1% (v/v) L-glutamine (200 mM) and 1% (v/v) Antibiotic-Antimycotic antibiotics at 37° C. in a humidified 5% CO2 incubator.\n(§4) CMC 2.24 treatment and PM2.5 exposure: The cells were subcultured when cells were grown to about 70% confluency. […]\n(§5) Analysis of cell viability by CCK-8 assay: In order to study the effect of CMC2.24 in A549 cells and primary alveolar macrophages after PM2.5 exposure, cell viability was determined using Cell Counting Kit (CCK)-8 kit (Sigma-Aldrich, MO, USA) according to the manufacturer's instructions, A549 cells (0.5×10^4/well) and primary macrophages (1×10^4/well) were cultured in 96-well plates for 24 h and 6 h, respectively; the cells were then exposed to various concentrations of CMC 2.24 (i.e. 0, 1, 5, 10, 20, 30, 40, and 80 μM of CMC 2.24) in the presence or absence of 100 μg/ml PM2.5 in the media for 24 h. […] Then optical density value was measured at 450 nm using a microplate reader (Multiskan Ascent, Thermo Lab systems). […]"}, "[6]": {"system": "primary alveolar macrophages", "assay": "Cell viability by CCK-8 assay in primary alveolar macrophages", "type": "cell-based", "settings": "1 to 80 μM, 24 h", "experimental": "as §3, §4, §5"}, "[7]": {"system": "S. aureus-infected hTG SP-B mice", "assay": "Mortality in S. aureus pneumonia in hTG SP-B mice", "type": "in vivo, mouse", "settings": "50 mg/kg daily", "experimental": "S. aureus-induced pneumonia model: Pilot experiments were performed to establish the S. aureus Xen36 pneumonia model using different doses of bacteria to infect mouse lung. […] Therefore, direct intratracheal inoculation of bioluminescent S. aureus Xen36 at a dose of 5×10^8/50 μl was used to infect mice in all subsequent experiment (Farnsworth, C. W. et al. 2015; Schriever, M. P. et al. 2011). In brief, hTG SP-B mice between 8 and 12 weeks old were anesthetized using intraperitoneal ketamine/xylazine (90 mg/kg ketamine, 10 mg/kg xylazine) injection. A 0.3-cm mid-line neck incision was made to expose the trachea. In the sham group, 50 μl of sterile vehicle was injected into the trachea by the same method. After infection, bio-luminescence signal was observed and quantified by an in vivo imaging system. (Xenogen-200 series, Caliper Life Sciences, Hopkinton, Mass.). Buprenorphine (0.05 mg/kg body weight) was injected for postoperative analgesia every 8-12 hrs. Mice were returned to their cages in a temperature-controlled room. (22. ° C.) with 12-h light and dark cycles and monitored every 4 h. Mice were anesthetized with isoflurane (2%) at several time points after infection (0 h, 12 h, 24 h, 28 h, 32 h, and 48 h) (Pribaz, J. R. et al, 2012; Guo, Y, et al, 2013). At 48 h after S. aureus infection, nice were sacrificed under anesthesia. […]"}, "Solubility": {"assay": "Solubility", "type": "physicochemical"}, "[8]": {"settings": "rats with pathologically excessive MMPs, doses as high as 500 mg/kg of body weight; cited from earlier work"}, "[9]": {"settings": "cited from earlier work"}, "[10]": {"settings": "cell and tissue culture, in vivo studies; cited from earlier work"}},
  "data": [
    {"smiles": "O=C(/C=C/c1ccc(O)cc1)C(C(=O)/C=C/c1ccc(O)cc1)C(=O)Nc1ccccc1", "note": "[CMC2.24]", "values": [
      {"measurement": "increase of Lipoxin A4 in rat serum", "setting": "Lipoxin A4", "result": 15.5, "unit": "%"},
      {"measurement": "increase of Lipoxin A4 in resident peritoneal cell-free exudates", "setting": "Lipoxin A4", "result": 80.6, "unit": "%"},
      {"measurement": "increase of Lipoxin A4 secretion by resident peritoneal macrophages", "setting": "Lipoxin A4; vs untreated diabetics", "result": 12.7, "unit": "%"},
      {"measurement": "increase of Lipoxin B4 secretion by resident peritoneal macrophages", "setting": "Lipoxin B4", "result": 12.7, "unit": "%"},
      {"measurement": "reduction of ratio IL-1β relative to lipoxin A4 secreted by macrophages", "setting": "[1]", "result": 85.3, "unit": "%"},
      {"measurement": "reduction of IL-1β/lipoxin A4 ratio", "setting": "[2]", "result": 93.8, "unit": "%"},
      {"measurement": "reduction of IL-6/lipoxin A4 ratio", "setting": "[3]", "result": 86, "unit": "%"},
      {"measurement": "average chord length (mean linear intercept)", "setting": "[4]", "result": 35, "unit": "µm"},
      {"measurement": "cell viability (CCK-8), compound alone", "setting": "[5]", "result": "did not influence cell viability"},
      {"measurement": "cell viability (CCK-8), compound alone", "setting": "[6]", "result": "did not influence cell viability"},
      {"measurement": "mortality rate", "setting": "[7]; infected SP-B-C mice, control 76%, p<0.05", "result": 50, "unit": "%"},
      {"measurement": "mortality rate", "setting": "[7]; infected SP-B-T mice, control 33%", "result": 32, "unit": "%"},
      {"measurement": "solubility relative to CMC2.5", "setting": "Solubility", "result": "improved solubility"},
      {"measurement": "toxicity on oral gavage", "setting": "[8]", "result": "no evidence of toxicity"},
      {"measurement": "solubility relative to curcumin", "setting": "[9]", "result": "improved solubility"},
      {"measurement": "toxicity compared to the parent compound", "setting": "[10]", "result": "even less toxicity"}
    ]}
  ]
}
